Patent publication US10399932B2, “Inhibitors of indoleamine-2,3-dioxygenase for the treatment of cancer” (BRISTOL-MYERS SQUIBB COMPANY, priority 2015, dated 2019)

These compounds were tested against human IDO1 (Homo sapiens, UniProt P14902) (assay: Assessment of human IDO-1 inhibitory activity in Hela cells (Interferon-gamma activated, Ehrlich reagent, absorbance at 490 nm)). Details: 18 hours.
Sequence of human IDO1 (P14902 whole entry): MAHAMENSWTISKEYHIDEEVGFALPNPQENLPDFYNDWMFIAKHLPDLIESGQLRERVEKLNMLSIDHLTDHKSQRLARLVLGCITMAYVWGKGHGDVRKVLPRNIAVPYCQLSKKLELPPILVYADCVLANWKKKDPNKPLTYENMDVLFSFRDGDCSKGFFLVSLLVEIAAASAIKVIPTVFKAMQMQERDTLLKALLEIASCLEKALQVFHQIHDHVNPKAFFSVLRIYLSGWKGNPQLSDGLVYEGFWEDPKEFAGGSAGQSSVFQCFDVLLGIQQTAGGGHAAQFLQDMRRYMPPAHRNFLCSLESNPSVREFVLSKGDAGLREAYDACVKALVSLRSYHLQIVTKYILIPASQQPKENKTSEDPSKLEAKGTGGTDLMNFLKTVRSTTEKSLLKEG
Format: cell-based
Design: endogenous in cells; host or cells: HeLa cells stimulated with interferon-gamma
Summary of the method: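 HeLa cells were preincubated with compound for 1 h at 37 °C, then stimulated with human IFN-γ (10 ng/ml final) or murine IFN-γ (5 ng/ml final) for 18 h. Kynurenine was read after TCA (3% final, 50 °C for 30 min) and Ehrlich reagent at A490. For IC50, unstimulated wells were set as 100% inhibition and IFN-γ alone as 0%.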
An IC50 of less than 50 nM was found for `CCOc1ncc(Nc2cc(C(CC)CC(=O)O)ccc2N(CC)C2CCOC2)cn1` (single isomer, unassigned) [947 D2] in this work. An IC50 of less than 5 nM was found for `CCN(c1ccc(C(CC(=O)O)C2CC2)cc1Nc1ccc(Cl)cc1)C1CCOCC1` (single isomer, unassigned) [Example 33 Enantiomer 2, 3-(3-((4-Chlorophenyl)amino)-4-(ethyl(tetrahydro-2H-pyran-4-yl)amino)phenyl)-3-cyclopropylpropanoic acid] in this work. An IC50 of less than 5 nM was found for `CCN(c1cc(F)c([C@@H](COC)CC(=O)O)cc1Nc1ccc(Cl)cc1)C1CCOCC1` (single isomer, unassigned) [Example 844, 3-(5-((4-Chlorophenyl)amino)-4-(ethyl(tetrahydro-2H-pyran-4-yl)amino)-2-fluorophenyl)-4-methoxybutanoic acid] in this work. An IC50 of less than 50 nM was found for `CCOc1ncc(Nc2cc(C(CC(=O)O)C3CC3)ccc2N(CC)C2CCOCC2)cn1` (single isomer, unassigned) [Example 39, 3-cyclopropyl-3-(3-((2-ethoxypyrimidin-5-yl)amino)-4-(ethyl(tetrahydro-2H-pyran-4-yl)amino)phenyl)propanoic acid] in this work. An IC50 of less than 50 nM was found for `CCOc1ncc(Nc2cc(C(CC)CC(=O)O)ccc2N(CC)C2CCOC2)cn1` (single isomer, unassigned) [947 D1] in this work. An IC50 greater than 50 nM was found for `COCCN(c1ccc(C(COC)CC(=O)O)cc1NC(=O)Nc1ccc(C)cc1)C1CCOCC1` (single isomer, unassigned) [Example 261 Enantiomer 2, 4-Methoxy-3-(4-((2-methoxyethyl)(tetrahydro-2H-pyran-4-yl)amino)-3-(3-(p-tolyl)ureido)phenyl)butanoic acid] in this work. An IC50 of less than 5 nM was found for `COCC(CC(=O)O)c1ccc(N2CCC(c3ccccc3)CC2)c(Nc2ccc(C#N)cc2)c1` (single isomer, unassigned) [Example 1350 E2, 3-(3-((4-Cyanophenyl)amino)-4-(4-phenylpiperidin-1-yl)phenyl)-4-methoxybutanoic acid] in this work. An IC50 greater than 50 nM was found for `CCC(CC(=O)O)c1ccc(N2CCC(C)CC2)c(Nc2cnc(OC)nc2)c1` (single isomer, unassigned) [Example 44, 3-(3-((2-methoxypyrimidin-5-yl)amino)-4-(4-methylpiperidin-1-yl)phenyl) pentanoic acid] in this work. An IC50 of less than 5 nM was found for `CCC(CC(=O)O)c1ccc(N(CC)C2CCS(=O)(=O)CC2)c(Nc2ccc(Cl)cc2)c1` (single isomer, unassigned) [Example 334 Enantiomer 2, 3-(3-((4-Chlorophenyl)amino)-4-((1,1-dioxidotetrahydro-2H-thiopyran-4-yl)(ethyl)amino)phenyl)pentanoic acid] in this work. An IC50 greater than 50 nM was found for `CC(CC(=O)O)c1ccc(N2C[C@@H](C)O[C@@H](C)C2)c(NC(=O)Nc2ccc(C#N)cc2)c1` (single isomer, unassigned) [Example 752] in this work. An IC50 of less than 5 nM was found for `CCC(CC(=O)O)c1ccc(N(CCOC)C2CCOCC2)c(Nc2ccc(C#N)cc2)c1` (single isomer, unassigned) [Example 1261, 3-(3-((4-cyanophenyl)amino)-4-((2-methoxyethyl)(tetrahydro-2H-pyran-4-yl)amino)phenyl)pentanoic acid] in this work. An IC50 of less than 50 nM was found for `CCOc1ncc(Nc2cc(C(CC)CC(=O)O)ccc2N(CC)C2CCOC2)cn1` (single isomer, unassigned) [Example 945 D2, 3-(3-((2-Ethoxypyrimidin-5-yl)amino)-4-(ethyl (tetrahydrofuran-3-yl)amino)phenyl)pentanoic acid] in this work. An IC50 of less than 5 nM was found for `CCCN(c1ccc([C@@H](COC)CC(=O)O)cc1Nc1cnc(OCC2CC2)nc1)C1CCOCC1` (single isomer, unassigned) [Example 543] in this work. An IC50 of less than 50 nM was found for `CCCOc1ncc(Nc2cc(C(C)CC(=O)O)ccc2N(CC)C2CCOCC2)cn1` (single isomer, unassigned) [Example 634, 3-(4-(ethyl(tetrahydro-2H-pyran-4-yl)amino)-3-((2-propoxypyrimidin-5-yl)amino)phenyl)butanoic acid] in this work. An IC50 greater than 50 nM was found for `CCC1COCCN1c1ccc([C@H](COC)CC(=O)O)cc1Nc1ccc(C#N)cn1` (single isomer, unassigned) [Example 1305] in this work. An IC50 of less than 5 nM was found for `COCC(CC(=O)O)c1ccc(N(CC(F)F)C2CCOCC2)c(Nc2ccc(C#N)cc2)c1` (single isomer, unassigned) [Example 323] in this work.
